{
  "source": "patent US8178553B2",
  "about": "“Compounds for the treatment of inflammatory disorders” (Schering Corporation, priority 2006, dated 2012)",
  "data": [
    {"target": "T1, purified catalytic domain of recombinant human TACE (rhTACEc) (Homo sapiens, UniProt P78536, N452Q/S266A)", "T1 construct": "rhTACEc, Residue 215 to 477 with two mutation (S266A and N452Q) and a 6xHis tail; 6xHis (C); made in house; host or cells: baculovirus/Hi5 insect cells", "T1 sequence (P78536 215-477 S266A/N452Q)": "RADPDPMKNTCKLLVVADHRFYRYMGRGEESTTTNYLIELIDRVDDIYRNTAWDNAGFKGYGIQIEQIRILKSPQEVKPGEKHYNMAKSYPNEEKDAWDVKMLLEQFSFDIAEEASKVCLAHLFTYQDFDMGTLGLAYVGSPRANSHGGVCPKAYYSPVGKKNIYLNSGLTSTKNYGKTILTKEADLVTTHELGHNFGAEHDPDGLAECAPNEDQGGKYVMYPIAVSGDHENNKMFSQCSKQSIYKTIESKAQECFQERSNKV", "experiment": "TACE kinetic assay, cleavage of internally quenched fluorescent peptide substrate SPDL-3", "type": "biochemical", "conditions": "Specific TACE inhibitory activity of representative compounds; read-out: Ki", "experimental": "(§1) TACE activity is determined by a kinetic assay measuring the rate of increase in fluorescent intensity generated by TACE catalyzed cleavage of an internally quenched peptide substrate (SPDL-3). […] It is purified from the baculovirus/Hi5 cells expression system using affinity chromatography. […] MCA is (7-Methoxycoumarin-4-yl)acetyl. Dpa is N-3-(2,4-Dinitrophenyl)-L-2,3-diaminopropionyl.\n(§2) A 50 μl assay mixture contains 20 mM HEPES, pH 7.3, 5 mM CaCl2, 100 µM ZnCl2, 2% DMSO, 0.04% Methylcellulose, 30 μM SPDL-3, 70 pM rhTACEc and a test compound. RhTACEc is pre-incubated with the testing compound for 90 min. at 25° C. Reaction is started by addition of the substrate. […] Rate of enzymatic reaction is shown as Units per second. Effect of a test compound is shown as % of TACE activity in the absence of the compound.", "units": {"Ki": "nM"}, "values": [
      {"molecule": "COc1ccc2c(c1)C(=O)N(C[C@@]1(c3ccc(S(C)(=O)=O)cc3)NC(=O)NC1=O)C2", "note": "[Compound 43]", "Ki": 0.26},
      {"molecule": "COc1ccc2c(c1)C(=O)N(C[C@@]1(c3cc4nc(S(C)(=O)=O)ccc4o3)NC(=O)NC1=O)C2", "note": "[Compound 50]", "Ki": 1.04}
    ]},
    {"target": "T1, purified catalytic domain of recombinant human TACE (rhTACEc)", "experiment": "TACE kinetic assay, cleavage of internally quenched fluorescent peptide substrate SPDL-3", "type": "biochemical", "conditions": "TACE inhibition, Table 1; read-out: Ki Rating", "experimental": "as §1, §2", "units": {"Ki": "nM"}, "values": [
      {"molecule": "CCOC(=O)CC1(CN2Cc3ccc(OC)cc3C2=O)NC(=O)NC1=O", "note": "(stereo not drawn) [Compound 1]", "Ki": "10 to 100"},
      {"molecule": "COc1ccc2c(c1)C(=O)N(CC1(CC(=O)O)NC(=O)NC1=O)C2", "note": "(stereo not drawn) [Compound 2]", "Ki": "100 to 1000"},
      {"molecule": "COc1ccc2c(c1)C(=O)N(CC1(CC(=O)N3CCOCC3)NC(=O)NC1=O)C2", "note": "(stereo not drawn) [Compound 3]", "Ki": "10 to 100"},
      {"molecule": "COc1ccc2c(c1)C(=O)N(CC1(CC(=O)N[C@@H](C)c3ccccc3)NC(=O)NC1=O)C2", "note": "(stereo partly drawn) [Compound 4]", "Ki": "10 to 100"},
      {"molecule": "COc1ccc2c(c1)C(=O)N(CC1(CC(=O)N3CCCC3)NC(=O)NC1=O)C2", "note": "(stereo not drawn) [Compound 5]", "Ki": "< 10"},
      {"molecule": "COc1ccc2c(c1)C(=O)N(CC1(CC(=O)NC3CCCCC3)NC(=O)NC1=O)C2", "note": "(stereo not drawn) [Compound 6]", "Ki": "10 to 100"},
      {"molecule": "COc1ccc2c(c1)C(=O)N(CC1(CC(=O)NC(C)C)NC(=O)NC1=O)C2", "note": "(stereo not drawn) [Compound 7]", "Ki": "10 to 100"},
      {"molecule": "CCN(CC)C(=O)CC1(CN2Cc3ccc(OC)cc3C2=O)NC(=O)NC1=O", "note": "(stereo not drawn) [Compound 8]", "Ki": "10 to 100"},
      {"molecule": "COc1ccc2c(c1)C(=O)N(CC1(CC(=O)N3CCCCC3)NC(=O)NC1=O)C2", "note": "(stereo not drawn) [Compound 9]", "Ki": "< 10"},
      {"molecule": "COc1ccc2c(c1)C(=O)N(CC1(CC(=O)Nc3nc4ccccc4s3)NC(=O)NC1=O)C2", "note": "(stereo not drawn) [Compound 10]", "Ki": "< 10"},
      {"molecule": "COc1ccc2c(c1)C(=O)N(CC1(CC(=O)NCC(C)C)NC(=O)NC1=O)C2", "note": "(stereo not drawn) [Compound 11]", "Ki": "10 to 100"},
      {"molecule": "COc1ccc2c(c1)C(=O)N(CC1(CC(=O)NCC3CCCO3)NC(=O)NC1=O)C2", "note": "(stereo not drawn) [Compound 12]", "Ki": "10 to 100"},
      {"molecule": "COc1ccc2c(c1)C(=O)N(CC1(CC(=O)N3CCN(C)CC3)NC(=O)NC1=O)C2", "note": "(stereo not drawn) [Compound 13]", "Ki": "10 to 100"},
      {"molecule": "COc1ccc2c(c1)C(=O)N(CC1(CC(=O)N3CCC(Cc4ccccc4)CC3)NC(=O)NC1=O)C2", "note": "(stereo not drawn) [Compound 14]", "Ki": "< 10"},
      {"molecule": "COc1ccc2c(c1)C(=O)N(CC1(CC(=O)N3CCc4ccccc4C3C3CC3)NC(=O)NC1=O)C2", "note": "(stereo not drawn) [Compound 15]", "Ki": "< 10"},
      {"molecule": "COc1ccc2c(c1)C(=O)N(CC1(CC(=O)N3CCC(C#N)(c4ccccc4)CC3)NC(=O)NC1=O)C2", "note": "(stereo not drawn) [Compound 16]", "Ki": "10 to 100"},
      {"molecule": "COc1ccc2c(c1)C(=O)N(CC1(CC(=O)N3Cc4ccccc4C3)NC(=O)NC1=O)C2", "note": "(stereo not drawn) [Compound 17]", "Ki": "10 to 100"},
      {"molecule": "COc1ccc2c(c1)CN(CC1(c3ccc(C#CCN(C)C)cc3)NC(=O)NC1=O)C2=O", "note": "(stereo not drawn) [Compound 18]", "Ki": "< 10"},
      {"molecule": "CN(C)CC#Cc1ccc([C@]2(CN3Cc4ccc(O)cc4C3=O)NC(=O)NC2=O)cc1", "note": "[Compound 19]", "Ki": "10 to 100"},
      {"molecule": "COc1ccc2c(c1)CN(CC1(c3ccc(C#CCO)cc3)NC(=O)NC1=O)C2=O", "note": "(stereo not drawn) [Compound 20]", "Ki": "< 10"},
      {"molecule": "COc1ccc2c(c1)C(=O)N(C[C@]1(c3ccc(C#Cc4ccccn4)cc3)NC(=O)NC1=O)C2", "note": "[Compound 21]", "Ki": "10 to 100"},
      {"molecule": "COc1ccc2c(c1)C(=O)N(C[C@@]1(c3ccc(C#Cc4ccccn4)cc3)NC(=O)NC1=O)C2", "note": "[Compound 22]", "Ki": "< 10"},
      {"molecule": "COc1ccc2c(c1)C(=O)N(C[C@@]1(c3ccc(-c4ccnc(C(N)=O)c4)cc3)NC(=O)NC1=O)C2", "note": "[Compound 23]", "Ki": "< 10"},
      {"molecule": "O=C1NC(=O)C(CN2Cc3ccsc3C2=O)(c2ccc(F)cc2)N1", "note": "(stereo not drawn) [Compound 26]", "Ki": "10 to 100"},
      {"molecule": "O=C1NC(=O)C(CN2Cc3ncccc3C2=O)(c2ccc(F)cc2)N1", "note": "(stereo not drawn) [Compound 27]", "Ki": "> 1000"},
      {"molecule": "O=C1NC(=O)C(CN2Cc3c[nH]c(=O)cc3C2=O)(c2ccc(F)cc2)N1", "note": "(stereo not drawn) [Compound 29]", "Ki": "10 to 100"},
      {"molecule": "COC(=O)c1ccc(C2(CN3Cc4ccc(OC)cc4C3=O)NC(=O)NC2=O)cc1", "note": "(stereo not drawn) [Compound 30]", "Ki": "< 10"},
      {"molecule": "COc1ccc2c(c1)C(=O)N(CC1(c3ccc(C(=O)O)cc3)NC(=O)NC1=O)C2", "note": "(stereo not drawn) [Compound 32]", "Ki": "< 10"},
      {"molecule": "COc1ccc2c(c1)C(=O)N(CC1(c3ccc(S(C)(=O)=O)cc3)NC(=O)NC1=O)C2", "note": "(stereo not drawn) [Compound 33]", "Ki": "< 10"},
      {"molecule": "COc1ccc2c(c1)C(=O)N(CC1(c3ccc(C(=O)N(C)C)cc3)NC(=O)NC1=O)C2", "note": "(stereo not drawn) [Compound 34]", "Ki": "10 to 100"},
      {"molecule": "N#Cc1ccc2c(c1)CN(CC1(c3ccc(F)cc3)NC(=O)NC1=O)C2=O", "note": "(stereo not drawn) [Compound 35]", "Ki": "10 to 100"},
      {"molecule": "O=C(O)Cc1ccc2c(c1)CN(CC1(c3ccc(F)cc3)NC(=O)NC1=O)C2=O", "note": "(stereo not drawn) [Compound 36]", "Ki": "100 to 1000"},
      {"molecule": "NC(=O)Cc1ccc2c(c1)CN(CC1(c3ccc(F)cc3)NC(=O)NC1=O)C2=O", "note": "(stereo not drawn) [Compound 37]", "Ki": "10 to 100"},
      {"molecule": "COc1ccc2c(c1)C(=O)N(C[C@@]1(c3cc4cc(C#N)cnc4o3)NC(=O)NC1=O)C2", "note": "[Compound 38]", "Ki": "< 10"},
      {"molecule": "COc1ccc2c(c1)C(=O)N(C[C@@]1(c3cc4cc(C(=O)O)cnc4o3)NC(=O)NC1=O)C2", "note": "[Compound 39]", "Ki": "< 10"},
      {"molecule": "COC(=O)c1ccc([C@@]2(CN3Cc4ccc(OC)cc4C3=O)NC(=O)NC2=O)cc1", "note": "[Compound 40]", "Ki": "10 to 100"},
      {"molecule": "COC(=O)c1ccc([C@]2(CN3Cc4ccc(OC)cc4C3=O)NC(=O)NC2=O)cc1", "note": "[Compound 41]", "Ki": "< 10"},
      {"molecule": "COc1ccc2c(c1)C(=O)N(C[C@]1(c3ccc(S(C)(=O)=O)cc3)NC(=O)NC1=O)C2", "note": "[Compound 42]", "Ki": "100 to 1000"},
      {"molecule": "COc1ccc2c(c1)C(=O)N(C[C@@]1(c3ccc(S(C)(=O)=O)cc3)NC(=O)NC1=O)C2", "note": "[Compound 43]", "Ki": "< 10"},
      {"molecule": "COc1ccc2c(c1)C(=O)N(C[C@@]1(c3cc4cc(S(C)(=O)=O)ccc4o3)NC(=O)NC1=O)C2", "note": "[Compound 44]", "Ki": "< 10"},
      {"molecule": "COC(=O)c1ncccc1C(=O)C[C@]1(CN2Cc3ccc(OC)cc3C2=O)NC(=O)NC1=O", "note": "[Compound 45]", "Ki": "10 to 100"},
      {"molecule": "COc1ccc2c(c1)C(=O)N(C[C@@]1(c3cc4ncccc4n3C(=O)OC(C)(C)C)NC(=O)NC1=O)C2", "note": "[Compound 46]", "Ki": "< 10"},
      {"molecule": "COc1ccc2c(c1)C(=O)N(C[C@@]1(CCc3ccc(F)c(C(N)=O)c3)NC(=O)NC1=O)C2", "note": "[Compound 47]", "Ki": "10 to 100"},
      {"molecule": "COc1ccc2c(c1)C(=O)N(C[C@@]1(/C(Cc3c[nH]c(=O)c(C)c3)=N/O)NC(=O)NC1=O)C2", "note": "[Compound 48]", "Ki": "10 to 100"},
      {"molecule": "COc1ccc2c(c1)C(=O)N(C[C@@]1(c3cc4nc(SC)ccc4o3)NC(=O)NC1=O)C2", "note": "[Compound 49]", "Ki": "< 10"},
      {"molecule": "COc1ccc2c(c1)C(=O)N(C[C@@]1(c3cc4nc(S(C)(=O)=O)ccc4o3)NC(=O)NC1=O)C2", "note": "[Compound 50]", "Ki": "< 10"},
      {"molecule": "COc1ccc2c(c1)C(=O)N(C[C@@]1(c3ccc(-c4ccccc4C(N)=O)cc3)NC(=O)NC1=O)C2", "note": "[Compound 51]", "Ki": "< 10"},
      {"molecule": "COC(=O)c1cc(-c2ccc([C@]3(CN4Cc5ccc(OC)cc5C4=O)NC(=O)NC3=O)cc2)cnc1N", "note": "[Compound 52]", "Ki": "< 10"},
      {"molecule": "COC(=O)c1cc(C)nc(-c2ccc([C@]3(CN4Cc5ccc(OC)cc5C4=O)NC(=O)NC3=O)cc2)c1", "note": "[Compound 53]", "Ki": "< 10"},
      {"molecule": "COC(=O)c1cnc(-c2ccc([C@]3(CN4Cc5ccc(OC)cc5C4=O)NC(=O)NC3=O)cc2)cn1", "note": "[Compound 54]", "Ki": "< 10"},
      {"molecule": "COC(=O)c1ccnc(-c2ccc(C3(CN4Cc5ccc(OC)cc5C4=O)NC(=O)NC3=O)cc2)c1", "note": "(stereo not drawn) [Compound 55]", "Ki": "< 10"},
      {"molecule": "COc1ccc2c(c1)C(=O)N(C[C@@]1(c3ccc(-c4cncc(C(=O)NC5CC5)c4)cc3)NC(=O)NC1=O)C2", "note": "[Compound 56]", "Ki": "< 10"},
      {"molecule": "COC(=O)c1cccnc1-c1ccc([C@]2(CN3Cc4ccc(OC)cc4C3=O)NC(=O)NC2=O)cc1", "note": "[Compound 57]", "Ki": "< 10"},
      {"molecule": "COc1ccc2c(c1)C(=O)N(C[C@@]1(c3ccc(-c4cncc(C(N)=O)c4)cc3)NC(=O)NC1=O)C2", "note": "[Compound 58]", "Ki": "< 10"},
      {"molecule": "COc1ccc2c(c1)C(=O)N(C[C@@]1(c3ccc(-c4cc(C(N)=O)ccn4)cc3)NC(=O)NC1=O)C2", "note": "[Compound 59]", "Ki": "< 10"}
    ]}
  ]
}
